In ChEMBL document CHEMBL4765295, “Synthesis, pharmacological profile and 2D-QSAR studies of curcumin-amino acid conjugates as potential drug candidates” (Eur J Med Chem, 2020):
Values after ≈ are worked out from the molar mass of the structure shown. Values joined by “and” are separate entries in the source; they are usually repeats but may differ in a detail not shown here. Equal values may be shown once.

Columns and labels:
Rattus norvegicus [1] = assay: Anti-inflammatory activity in Wistar rat assessed as inhibition of carrageenan-induced paw edema at 10 mg/kg, ip pretreated for 1 hr followed by carrageenan challenge and measured after 4 hr relative to control (reference value: 0.00 +/-0.4 %); type: functional; settings: time 5 hrs
Rattus norvegicus [2] = assay: Antiinflammatory activity in Wistar rat model of carrageenan-induced paw edema assessed as reduction in thickness of paw edema at 10 mg/kg, ip pretreated for 1 hr followed by carrageenan challenge and measured after 2 hrs (reference value: 2.06 +/-0.09 mm); type: functional; settings: time 3 hrs
Splenocyte [3] = assay: Immunomodulatory activity in Swiss albino mouse splenocytes assessed as cell viability at 10 uM by measuring inhibition of stimulation index incubated for 72 hrs in presence of mitogenic stimulus phytohaemagglutinin by MTT assay relative to indomethacin; type: functional; settings: read-out: Activity
[4] = Ulcerogenic activity in fasted albino mouse assessed as average severity of ulcers in gastric mucosa at 10 mg/kg, po for 3 days (reference value: 0); type: toxicity, organism-based; settings: in vivo, 72 h, time 3 day
Candida albicans = assay: Antifungal activity against Candida albicans incubated for 18 to 24 hrs by CLSI method; type: functional; settings: time 18-24 hrs
Rattus norvegicus [5] = assay: Anti-inflammatory activity in Wistar rat assessed as inhibition of carrageenan-induced paw edema at 10 mg/kg, ip pretreated for 1 hr followed by carrageenan challenge and measured after 24 hr relative to control (reference value: 0.00 +/-0.3 %); type: functional; settings: time 25 hrs
[6] = Toxicity in albino mouse assessed as induction of toxic symptoms at 50 to 100 mg/kg, ip measured after 24 hrs; type: organism-based; settings: in vivo, dose 50-100 mg/kg
Rattus norvegicus [7] = assay: Antiinflammatory activity in Wistar rat model of carrageenan-induced paw edema assessed as reduction in thickness of paw edema at 10 mg/kg, ip pretreated for 1 hr followed by carrageenan challenge and measured after 4 hrs (reference value: 1.40 +/-0.10 mm); type: functional; settings: time 5 hrs
[8] = Ulcerogenic activity in fasted albino mouse assessed as incidence of gastric ulceration at 10 mg/kg, po for 3 days (reference value: 0 %); type: toxicity, organism-based; settings: in vivo, 72 h, time 3 day
Pseudomonas aeruginosa = assay: Antibacterial activity against Pseudomonas aeruginosa ATCC 27853 incubated for 18 hrs by agar dilution assay; type: functional
Mus musculus [9] = assay: Analgesic activity in albino mouse assessed reduction in acetic acid-induced abdominal writhing by measuring writing reflex at 10 mg/kg, ip pretreated for 1 hr followed by acetic acid challenge and measured starting 5 mins post acetic acid challenge for 10 mins (reference value: 42.4 +/- 1.02); type: functional; settings: time 75 min, 1.25 h
[10] = Ulcerogenic activity in fasted albino mouse assessed as average number of ulcers in gastric mucosa at 10 mg/kg, po for 3 days (reference value: 0); type: toxicity, organism-based; settings: in vivo, 72 h, time 3 day
Rattus norvegicus [11] = assay: Antiinflammatory activity in Wistar rat model of carrageenan-induced paw edema assessed as reduction in thickness of paw edema at 10 mg/kg, ip pretreated for 1 hr followed by carrageenan challenge and measured after 1 hr (reference value: 2.41 +/-0.05 mm); type: functional; settings: time 1 hr after carrageenan
Rattus norvegicus [12] = assay: Anti-inflammatory activity in Wistar rat assessed as inhibition of carrageenan-induced paw edema at 10 mg/kg, ip pretreated for 1 hr followed by carrageenan challenge and measured after 3 hr relative to control (reference value: 0.00 +/-0.1 %); type: functional; settings: time 4 hrs
Mus musculus [13] = assay: Analgesic activity in albino mouse assessed protection against acetic acid-induced abdominal writhing at 10 mg/kg, ip pretreated for 1 hr followed by acetic acid challenge and measured starting 5 mins post acetic acid challenge for 10 mins relative to control (reference value: 0 %); type: functional; settings: time 75 min, 1.25 h
Mus musculus [14] = assay: Analgesic activity in albino mouse assessed as forepaw licking/jumping latency time at 10 mg/kg, ip measured after 30 mins by hot plate test (reference value: 5.02 +/- 0.09 sec); type: functional; settings: 0.5 h
Rattus norvegicus [15] = assay: Antiinflammatory activity in Wistar rat model of carrageenan-induced paw edema assessed as reduction in thickness of paw edema at 10 mg/kg, ip pretreated for 1 hr followed by carrageenan challenge and measured after 3 hrs (reference value: 1.79 +/-0.07 mm); type: functional; settings: time 4 hrs
Rattus norvegicus [16] = assay: Antiinflammatory activity in Wistar rat model of carrageenan-induced paw edema assessed as reduction in thickness of paw edema at 10 mg/kg, ip pretreated for 1 hr followed by carrageenan challenge and measured after 24 hrs (reference value: 0.83 +/-0.08 mm); type: functional; settings: time 25 hrs
Rattus norvegicus [17] = assay: Anti-inflammatory activity in Wistar rat assessed as inhibition of carrageenan-induced paw edema at 10 mg/kg, ip pretreated for 1 hr followed by carrageenan challenge and measured after 2 hr relative to control (reference value: 0.00 +/-0.03 %); type: functional; settings: time 3 hrs
Streptococcus pyogenes = assay: Antibacterial activity against Streptococcus pyogenes ATCC 19615 incubated for 18 hrs by agar dilution method; type: functional
Mus musculus [18] = assay: Analgesic activity in albino mouse assessed as protection at 10 mg/kg, ip measured after 120 mins by hot plate test relative to indomethacin; type: functional; settings: 2 h
Splenocyte [19] = assay: Immunomodulatory activity in Swiss albino mouse splenocytes assessed as cell viability at 10 uM by measuring stimulation index incubated for 72 hrs in presence of mitogenic stimulus phytohaemagglutinin by MTT assay (reference value: 1.00 +/- 0.24); type: functional
Mus musculus [20] = assay: Analgesic activity in albino mouse assessed protection against acetic acid-induced abdominal writhing at 10 mg/kg, ip pretreated for 1 hr followed by acetic acid challenge and measured starting 5 mins post acetic acid challenge for 10 mins relative to indomethacin; type: functional; settings: time 75 min, 1.25 h
Salmonella typhimurium = assay: Antibacterial activity against Salmonella typhimurium ATCC 19430 incubated for 18 hrs by agar dilution assay; type: functional, Salmonella enterica subsp. enterica serovar Typhimurium; settings: Salmonella enterica
Mus musculus [21] = assay: Analgesic activity in albino mouse assessed as protection at 10 mg/kg, ip measured after 90 mins by hot plate test (reference value: 0 %); type: functional; settings: 1.5 h
Staphylococcus aureus = assay: Antibacterial activity against Staphylococcus aureus ATCC 25923 incubated for 18 hrs by agar dilution method; type: functional
Mus musculus [22] = assay: Analgesic activity in albino mouse assessed as protection at 10 mg/kg, ip measured after 30 mins by hot plate test (reference value: 0 %); type: functional; settings: 0.5 h
Peritoneal macrophage [23] = assay: Antiinflammatory activity in […] mouse Peritoneal macrophages assessed as reduction in LPS-induced NO production by measuring reduction in stimulation index at 10 uM preincubated for 1 hr followed by LPS stimulation measured after 24 hrs by Griess method (reference value: 27.31 +/- 2.56 uM); type: functional; settings: time 25 hrs
Mus musculus [24] = assay: Analgesic activity in albino mouse assessed as forepaw licking/jumping latency time at 10 mg/kg, ip measured after 120 mins by hot plate test (reference value: 2.62 +/- 0.06 sec); type: functional; settings: 2 h
[25] = Ulcerogenic activity in fasted albino mouse assessed as ulcer index in gastric mucosa at 10 mg/kg, po for 3 days (reference value: 0); type: toxicity, organism-based; settings: in vivo, 72 h, time 3 day
Peritoneal macrophage [26] = assay: Antiinflammatory activity in […] mouse Peritoneal macrophages assessed as inhibition of LPS-induced NO production at 10 uM preincubated for 1 hr followed by LPS stimulation measured after 24 hrs by Griess method relative to control (reference value: 0.0 %); type: functional; design: scale not given: the % may be the effect or the level left; settings: time 25 hrs
Mus musculus [27] = assay: Analgesic activity in albino mouse assessed as forepaw licking/jumping latency time at 10 mg/kg, ip measured after 60 mins by hot plate test (reference value: 3.42 +/- 0.03 sec); type: functional; settings: 1 h
Rattus norvegicus [28] = assay: Anti-inflammatory activity in Wistar rat assessed as inhibition of carrageenan-induced paw edema at 10 mg/kg, ip pretreated for 1 hr followed by carrageenan challenge and measured after 1 hr relative to control (reference value: 0.00 +/-0.02 %); type: functional; settings: time 2 hrs
Mus musculus [29] = assay: Analgesic activity in albino mouse assessed as protection at 10 mg/kg, ip measured after 60 mins by hot plate test (reference value: 0 %); type: functional; settings: 1 h
Mus musculus [30] = assay: Analgesic activity in albino mouse assessed as forepaw licking/jumping latency time at 10 mg/kg, ip measured after 90 mins by hot plate test (reference value: 2.72 +/- 0.01 sec); type: functional; settings: 1.5 h
Mus musculus [31] = assay: Analgesic activity in albino mouse assessed as protection at 10 mg/kg, ip measured after 120 mins by hot plate test (reference value: 0 %); type: functional; settings: 2 h
Rattus norvegicus [32] = assay: Anti-inflammatory activity in Wistar rat assessed as inhibition of carrageenan-induced paw edema at 10 mg/kg, ip pretreated for 1 hr followed by carrageenan challenge and measured after 4 hr relative to indomethacin; type: functional; settings: time 5 hrs

MIC (Candida albicans) | MIC (Pseudomonas aeruginosa) | MIC (Streptococcus pyogenes) | Structure (SMILES) | inhibition in vivo at 10 mg/kg (Rattus norvegicus [1]) | Activity (Rattus norvegicus [2]) | viability at 10 µM (Splenocyte [3]) | Activity [4] | inhibition in vivo at 10 mg/kg (Rattus norvegicus [5]) | Activity (Rattus norvegicus [7]) | Activity [8] | Activity (Mus musculus [9]) | Activity [10] | Activity (Rattus norvegicus [11]) | inhibition in vivo at 10 mg/kg (Rattus norvegicus [12]) | Activity (Mus musculus [13]) | Time (Mus musculus [14]) | Activity (Rattus norvegicus [15]) | Activity (Rattus norvegicus [16]) | inhibition in vivo at 10 mg/kg (Rattus norvegicus [17]) | Activity (Mus musculus [18]) | further results
0.5 µg/mL and 0.642 µM | 1 µg/mL and 1.28 µM | 0.125 µg/mL and 0.161 µM | COc1cc(/C=C/C(=O)/C=C(O)/C=C/c2ccc(OC(=O)[C@@H](C)NC(=O)OCc3ccccc3)c(OC)c2)ccc1OC(=O)[C@@H](C)NC(=O)OCc1ccccc1 | 100% | 0.23 mm | 76% | 0 | 49% | 0 mm | 0% | 14.4 | 0 | 0.43 mm | 95% | 66% | 5.6 s | 0.09 mm | 0.42 mm | 89% | 60% | Activity [6]: Non-Toxic; Activity_index (Splenocyte [19]): 1.59; Activity (Mus musculus [20]): 107.1%; MIC (Salmonella typhimurium): 0.5 µg/mL and 0.642 µM; Activity (Mus musculus [21]): 25.7%; MIC (Staphylococcus aureus): 0.5 µg/mL and 0.642 µM; Activity (Mus musculus [22]): 11.6%; Activity (Peritoneal macrophage [23]): 17.63 µM; Time (Mus musculus [24]): 3.28 s; UI [25]: 0; Activity (Peritoneal macrophage [26]): 35.45%; Time (Mus musculus [27]): 3.7 s; inhibition in vivo at 10 mg/kg (Rattus norvegicus [28]): 82%; Activity (Mus musculus [29]): 8.2%; Time (Mus musculus [30]): 3.42 s; Activity (Mus musculus [31]): 25.2%; inhibition in vivo at 10 mg/kg (Rattus norvegicus [32]): 115%
0.125 µg/mL and 0.339 µM | 0.125 µg/mL and 0.339 µM | 0.125 µg/mL and 0.339 µM | COc1cc(/C=C/C(=O)CC(=O)/C=C/c2ccc(O)c(OC)c2)ccc1O [CURCUMIN] | 85% | 0.82 mm | 79.5% | 0.33 | 36% | 0.21 mm | 3.33% | 20.3 | 0.33 | 2.12 mm | 75% | 52.1% | 5.04 s | 0.45 mm | 0.53 mm | 60% | 76.4% | Activity_index (Splenocyte [19]): 1.52; Activity (Mus musculus [20]): 84.6%; MIC (Salmonella typhimurium): 0.125 µg/mL and 0.339 µM; Activity (Mus musculus [21]): 66.9%; MIC (Staphylococcus aureus): 0.339 µM (≈ 0.125 µg/mL); Activity (Mus musculus [22]): 0.4%; Activity (Peritoneal macrophage [23]): 17.18 µM; Time (Mus musculus [24]): 3.46 s; UI [25]: 3.99; Activity (Peritoneal macrophage [26]): 37.11%; Time (Mus musculus [27]): 4.62 s; inhibition in vivo at 10 mg/kg (Rattus norvegicus [28]): 12%; Activity (Mus musculus [29]): 35.1%; Time (Mus musculus [30]): 4.54 s; Activity (Mus musculus [31]): 32.1%; inhibition in vivo at 10 mg/kg (Rattus norvegicus [32]): 98%
